Reference: patent US20070185045A1, “Inhibitors of 2-oxoglutarate dioxygenase as gamma globin inducers” (priority 2006, published 2007)

What was measured:
[1] = test system: CD34+ bone marrow progenitor cells; details: for increase in F-cells over untreated cultures, combination with HU: in combination with 5 μM HU, Phase II only (FIG. 3B)
γ-globin = γ-globin mRNA expression by quantitative PCR in K562 cells; format: cell-based, human; details: 3 days, HPI-6 plus 100 μM HU (FIG. 1A)
Procedure: For studies utilizing the human erythroleukemia K562 cell line (ATCC), cells were grown and cultured in complete medium (RPM1 1640, 10% fetal calf serum (FCS), 100 U/ml penicillin and 0.1 mg/ml streptomycin) in a humidified incubator at 37° C., 95% air, 5% CO2. HPIs were titrated into duplicate cultures at dosage levels spanning more than 100-fold differences in concentration, and incubated from 24 to 96 hours prior to harvesting and quantitation of F-cells and HbF levels by flow cytometry.
Each PCR run included a standard curve and water blank. In addition, a melt curve was run after completion of each PCR run to assess the specificity of the amplification, γ-globin gene expression was normalized relative to the expression level of 18S ribosomal RNA for each sample.

SMILES | HbF expression together with HU ([1]; 20 μM HPI-1 with HU (FIGS. 5A, 5B)) | HbF expression compared to vehicle control (percent F-cells or MFI for HbF) ([1]; 20 μM, triplicate (FIGS. 5A, 5B)) | increase in F-cells over untreated cultures, combination with HU [1] | γ-globin expression with added hydroxyurea (γ-globin)
O=C(O)CNC(=O)c1nc(Cl)c2ccccc2c1O [HPI-1, N-((1-chloro-4-hydroxy-isoquinoline-3-carbonyl)-amino)-acetic acid] | additive to the effects of HU | increased HbF expression | 58% | 
O=C(O)CNC(=O)c1ncc2cc(Br)ccc2c1O [HPI-2, [(7-Bromo-4-hydroxy-isoquinoline-3-carbonyl)-amino]-acetic acid] |  |  | 29% | 
O=C(O)CNC(=O)c1ncc2cc(Sc3ccccc3)ccc2c1O [HPI-6, [(4-Hydroxy-7-phenylsulfanyl-isoquinoline-3-carbonyl)-amino]-acetic acid] |  |  |  | augmented
